The values below come from patent US7572798B2, “Combi-molecules having signal transduction inhibitory properties and DNA damaging properties” (McGill University, priority 2001, dated 2009).

Values joined by “and” are separate entries in the source; they are usually repeats but may differ in a detail not shown here. Identical values can stand only once. Bounds are passed on as bounds.

The subject of data set [1] is A431 cells. In words: SRB growth inhibition assay in A431 cells. To be noted: Homo sapiens, A-431, 96 h, read-out: IC50 growth inhibition. The format is cell-based.
For data set [2], the target named is T1, EGFR (Homo sapiens, UniProt P00533). In words: EGFR TK ELISA with PGT substrate (competitive binding at the ATP site). Details: purchased BIOMOL (Plymouth Meeting); also a gift from Pfizer Inc. Type of data set: biochemical. The method, then:
The ability of the combi-molecules to block EGFR TK activity was determined by an ELISA assay using poly(L-glutamic acid-L-tyrosine, 4:1) PGT as a substrate and commercially available EGFR.
Nunc MaxiSorp 96-well plates were incubated overnight at 37° C. with 100μL per well of 0.25 mg/mL PGT in PBS. Excess PGT was removed and the plates were washed 3 times with Tween 20 (0.1%) in PBS. […] The compound was added and phosphorylation initiated by the addition of ATP (20 μM). After 8 min at room temperature with constant shaking, the reaction was terminated by the aspiration of the reaction mixture and by rinsing the plate 4 times with wash buffer (Tween 20 (0.1%) in PBS). […] Antibody was removed by aspiration, and the plates washed 4 times with wash buffer. The signals were developed by the addition of 50 μL per well of TMB peroxidase substrate (Kierkegaard and Perry Laboratories, Gaithersberg, Md.).
This assay is similar to the one previously described. Nunc MaxiSorp 96-well plates were incubated overnight at 37° C. with 100 μl/well of 25 ng/ml PGT in PBS. Excess PGT was removed and the plates were washed three times with wash buffer (Tween 20 (0.1%) in PBS). […] The compound was added and phosphorylation initiated by the addition of ATP (20 μM). After 8 min at room temperature with constant shaking, the reaction was terminated by aspirating the mixture and by rinsing the plates four times with wash buffer Tween 20 (0.1%) in PBS. […] Antibody was removed by aspiration, and the plate washed four times with wash buffer. The signals were developed by the addition of 50 μl/well of 3,3′,5,5′-tetramethylbenzidine (TMB) peroxidase substrate (Kierkegaard and Perry Laboratories, Gaithersberg, Md., USA).

The subject of data set [3] is A431 cells. As to the kind of experiment: SRB growth inhibition assay in A431 cells. The format is cell-based, human. The procedure:
All growth inhibitory activities were evaluated using the SRB assay (33). Briefly, following drug treatment, cells were fixed using 50 μL of cold trichloroacetic acid (50%) for 60 min at 4° C., washed five times with tap water, and stained for 30 min at room temperature with SRB (0.4%) dissolved in acetic acid (0.5%). The plates were rinsed five times with 1% acetic acid and allowed to air dry. The resulting colored residue was dissolved in 200 μL of Tris base (10 mM), and the optical density read for each well at 540 nm using a Bio-Rad microplate reader (model 2550). […]
Cell monolayers were continuously exposed to different concentrations of each drug for 72 h. Under short exposure, they were treated with each drug for 2 h and allowed to recover for 72 h in drug-free medium.
To study the reversibility of the antiproliferative effects of our compounds, cells were grown to 70% confluence in 96-well plates and subsequently washed twice with PBS, after which they were exposed to serum-free medium for 18 h. Under continuous exposure, the cells were exposed to different concentrations of each drug for 120 h. Under short exposure, they were exposed to each drug for 2 h, after which they were allowed to recover for 120 h in drug free medium. Growth inhibitory activities were evaluated using the SRB assay as described above.

Data set [4] deals with T2, cytoplasmic domain of the insulin receptor β subunit (Homo sapiens, UniProt P06213).
T2 construct: Baculovirus-expressed cytoplasmic domain of the insulin receptor β subunit; purchased Biomol Research laboratories Inc., USA; host or cells: Baculovirus expression
As to the kind of experiment: insulin receptor kinase ELISA. The note with it: 1-100 μM range. Type of data set: biochemical. The procedure:
(§1) Conditions for the c-src and insulin kinase assays were similar to those of the EGFR kinase assay, with the exception of the addition of 1 mM manganese chloride to the assay buffer, and a final ATP concentration of 100 μM. The reaction was terminated by the addition of 50 μl of a 250 mM solution of EDTA prior to aspiration.
(In an ELISA, binding on a coated surface is turned into a signal by an enzyme label.)

Data set [5] deals with T1, EGFR. In words: Reverse EGFR autophosphorylation (reversibility) assay in A431 cells. Type of data set: cell-based. To be noted: A431, 30 μM, 90 min. The procedure: To test this hypothesis, the reversibility assay (40, 41) was used, according to which the cells are treated with the drug for 90 min after which the culture medium is repeatedly removed and replaced 3 times, followed by the measurement of EGFR autophosphorylation.
A431 cells were grown to confluence in 6-well plates and then incubated in serum-free medium for 18 h (41). Duplicate sets of cells were then treated with 30 μM of each compound for 90 min. One set of cells was then stimulated with EGF (100 ng/ml) for 10 min and extracts were made as described under the Western blotting procedure above. The other set of cells was washed free of each compound with warmed serum-free media and incubated for 2 h. Thereafter, the cells were washed, incubated for another 2 h, washed again, and then incubated for a further 4 h. This set of cells was then stimulated with EGF and extracts were prepared as for the first set.

The next data set deals with T3, human c-src (Homo sapiens, UniProt P12931).
T3 construct: purchased Upstate NY; host or cells: Baculovirus expression
As to the kind of experiment: c-src kinase ELISA. To be noted: 1-100 μM range. Type of data set: biochemical. The method, then:
as §1

The test system of a further data set is NIH3T3HER14 cells. As to the kind of experiment: Growth factor-stimulated proliferation in NIH3T3HER14 cells (SRB). Type of data set: cell-based, mouse. To be noted: NIH3T3HER14, 72 h. The procedure:
To study the effect of our compounds on growth factors stimulated proliferation, cells were grown to 70% confluence in 48-well plates and washed twice with PBS, after which they were exposed to serum-free medium for 18 h. The cells were then exposed to each drug and growth factors (EGF, TGFα, PDGF or serum) for 72 h and cell growth measured using the sulforhodamine B (SRB) assay (33). Briefly, following drug treatment, cells were fixed using 50 μl of cold trichloroacetic acid (50%) for 60 min at 4° C., washed five times with tap water, and stained for 30 min at room temperature with SRB (0.4%) dissolved in acetic acid (0.5%). The plates were rinsed five times with 1% acetic acid and allowed to air dry. […] Each point represents the average of at least two independent experiments run in triplicate.

In data set [6] the test system is A431 cells. In words: Alkaline comet assay for DNA damage in A431 cells. The note with it: for DNA damage (comet tail moment): A431, 30 min or 2 h exposure.
Experimental: A431 cells were exposed to drugs for 30 min or 2 h, and harvested with trypsin-EDTA. The cells were subsequently collected by centrifugation and re-suspended in PBS. The resulting cell suspension was diluted to approximately 10^6 cells, and mixed with agarose (1%) in PBS at 37° C. in a 1:10 dilution. The gels were cast on Gelbond strips (Mandel Scientific, Guelph, Canada) using gel casting chambers, as previously described (32), then immediately placed into a lysis buffer [2.5 M NaCl, 0.1 M tetra-sodium EDTA, 10 mM tris-base, 1% (w/v) N-lauryl sarcosine, 10% (v/v) DMSO and 1% (v/v) Triton X-100]. After being kept on ice for 30 min, the gels were gently rinsed with distilled water and then immersed in a second lysis buffer [2.5 M NaCl, 0.1 M tetra-sodium EDTA, 10 mM tris-base], containing 1 mg/ml proteinase K for 60 min at 37° C. Thereafter, the gels were rinsed with distilled water, incubated in alkaline electrophoresis buffer for 30 min at 37° C., and electrophoresed at 300 mA for 60 min. The gels were subsequently rinsed with distilled water and placed into 1 M ammonium acetate for 30 min. They were further soaked in 100% ethanol for 2 h, dried overnight and subsequently stained with SYBR Gold ( 1/10000 dilution of stock supplied from Molecular Probes, OR) for 20 min. For evaluation of comets, DNA damage was assessed using the Tail Moment parameter (i.e. the product of the distance between the barycentres of the head and the tail of the comet. A minimum of 50 cell comets were analyzed for each sample using ALKOMET v3.1 software, and values are an average of tail moments for the entire cell population.
Cell suspensions were diluted to approximately 10^6 cells, and mixed with agarose (1%) in PBS at 37° C. in a 1:10 dilution. The gels were cast on Gelbond strips (Mandel Scientific, Guelph, Canada) using gel casting chambers, as previously described (31), and then immediately placed in a lysis buffer [2.5 M NaCl, 0.1 M tetra-sodium EDTA, 10 mM Tris-base, 1% (w/v) N-lauryl sarcosine, 10% (v/v) DMSO, and 1% (v/v) Triton X-100, pH 10.0]. After being kept on ice for 30 min, the gels were gently rinsed with distilled water and immersed in a second lysis buffer (2.5 M NaCl, 0.1 M tetrasodium EDTA, 10 mM Tris-base) containing 1 mg/ml proteinase K for 60 min at 37° C. Thereafter, the gels were rinsed with distilled water, incubated in alkaline electrophoresis buffer for 30 min at 37° C., and electrophoresed at 300 mA for 60 min. The gels were subsequently rinsed with distilled water and placed in 1 M ammonium acetate for 30 min. They were soaked in 100% ethanol for 2 h, dried overnight, and subsequently stained with SYBR Gold ( 1/10000 dilution of stock supplied from Molecular Probes, Eugene, Oreg.) for 20 min. Comets were visualized at 330× magnification and DNA damage was quantitated using the Tail Moment parameter (i.e., the distance between the barycenter of the head and the tail of the comet multiplied by the percentage of DNA within the tail of the comet). A minimum of 50 cell comets were analyzed for each sample, using ALKOMET version 3.1 image analysis software, and values are averages of tail moments for the entire cell population per sample.
The target in data set [7] is T2, cytoplasmic domain of the insulin receptor β subunit. To be noted: read-out: IC50 insulin receptor (positive control); cited from earlier work.
Data set [8] in a line: Degradation in serum-containing cell culture medium (UV, HPLC). The format is in vitro ADME. The note with it: bovine, serum-containing cell culture medium (RPMI with 10% serum); RPMI with 10% serum, 37° C.; read-out: half-life (t1/2) by UV spectrophotometry at 340 nm. The method, then:
Thereafter, proteins were precipitated by the addition of acetonitrile (3.5 ml) and the supernatant collected by centrifugation. […] The operating mode was isocratic and two solutions, “A” (50% acetonitrile) and “B” (50% water), were used with a 0.5 ml/min flow rate and a 5 μL injection volume. […] For the rapid quantitation of metabolite, a less polar acetonitrile-water (70:30) eluent was used.
The half-life was estimated by a one-phase exponential decay curve-fit method using the GraphPad software package (GraphPad Software, Inc., San Diego, Calif.).
The half-life of BJ2000 under physiological conditions was studied by UV-spectrophotometry. BJ2000 was dissolved in a minimum volume of DMSO, diluted with RPMI-1640 supplemented with 10% FBS, and absorbencies read at 340 nm in a UV cell maintained at 37° C. with a circulating water bath. The half-life was estimated by a one-phase exponential decay curve-fit method, using the GraphPad software package (GraphPad software, Inc., San Diego, Calif., USA).
Proteins were thereafter precipitated by the addition of acetonitrile (3.5 ml), and the supernatant collected by centrifugation. […] HPLC analyses were performed on a Hewlett Packard 1090 liquid chromatograph, using a Waters C4 15-μm 300×3.9-mm reverse phase column to characterize and quantitate the products resulting from the degradation of BJ2000. […] The peaks were detected at 250 nm.

Data set [9] concerns A431 cells. As to the kind of experiment: Colony forming (clonogenic) assay in A431 cells. The note with it: Homo sapiens, A-431, 144 h, read-out: IC50 colony formation.
Data set [10] has as its target T1, EGFR. As to the kind of experiment: cell-based.
Experimental: The inhibition of receptor autophosphorylation in viable cells was determined by anti-phosphotyrosine Western Blots. A431 cells were pre-incubated overnight for 24 h at 37° C. in a 6-well plate (1×10^6) with 0.1% serum, after which they were exposed to a range of doses for each drug for 2 h and subsequently treated with 50 ng/mL EGF for 30 min at 37° C. The cells were thereafter washed with PBS and re-suspended in cold lysis buffer [50 mM Tris-HCl pH 7.5; 150 mM NaCl; 1% NP40, 1 mM EDTA; 5 mM NaF; 1 mM Na3VO4; protease inhibitor tablet (Roche Biochemicals, Laval, Canada)]. The lysates were kept on ice for 30 min and collected by centrifugation at 10 000 rpm for 20 min at 4° C. The protein concentrations were determined against a standardized control using the Bio-Rad protein assay kit (Bio-Rad Laboratories, Hercules, Calif.). […] Non-specific binding on the PVDF membrane was minimized with a blocking buffer containing nonfat dry milk (3%) in PBS. The membrane was blotted with primary antibodies [either antiphosphotyrosine antibody (UBI, Lake Placid, N.Y.) for the detection of phosphotyrosine, or anti-EGFR (Neomarkers, Fremont, Calif.) for the determination of corresponding receptor levels], and anti-β-tubulin (Neomarkers, Fremont, Calif.) for the detection of equal loading. Thereafter, blots were incubated with HRP-goat anti-mouse antibody (1:200 dilution; Bio-Rad Laboratories, Hercules, Calif.) and the bands visualized with an enhanced chemiluminescence system (Amersham Pharmacia Biotech, Buckinghamshire, UK). Band intensities were measured using the SynGene GeneTools software package (Cambridge, UK).
The inhibition of receptor autophosphorylation in viable cells was determined by anti-phosphotyrosine Western Blots. […] Protein concentrations were determined against a standardized control using the Bio-Rad protein assay kit (Bio-Rad Laboratories, Hercules, Calif.). […] Band intensities were measured using the SynGene GeneTools software package (Cambridge, UK).
The test system of data set [11] is NIH3T3 and NIH3T3HER14 cells. As to the kind of experiment: MTT cytotoxicity assay in NIH3T3 / NIH3T3HER14. The format is cell-based, mouse. The method, then:
The cytotoxic effects of our compounds were evaluated using the 3-(4,5-dimethylthiazo-2-yl)-2,5-diphenyltetrazolium bromide (MTT) assay (42) with minor modifications. Briefly, cells were grown in 24-well plates and then exposed to the compounds for 96 h. MTT (50μl) of (5 mg/ml in sterile PBS) was added to 500 μl of media and the plates were incubated for 2-3 h at 37° C. […] Each point represents the average of at least two independent experiments run in duplicate.

Where [12] appears, read: Homo sapiens, A-431, read-out: IC50 growth inhibition.
Where [13] appears, read: Homo sapiens, A-431, 72 h, 72 h continuous exposure, SRB, A431, read-out: IC50 growth inhibition.
The mark [14] stands for this setting: ELISA, PGT substrate, purified EGFR, ATP 20 μM, 8 min, read-out: IC50, inhibition of EGFR TK (competitive binding at ATP site).

T1 sequence (P00533 25-1210): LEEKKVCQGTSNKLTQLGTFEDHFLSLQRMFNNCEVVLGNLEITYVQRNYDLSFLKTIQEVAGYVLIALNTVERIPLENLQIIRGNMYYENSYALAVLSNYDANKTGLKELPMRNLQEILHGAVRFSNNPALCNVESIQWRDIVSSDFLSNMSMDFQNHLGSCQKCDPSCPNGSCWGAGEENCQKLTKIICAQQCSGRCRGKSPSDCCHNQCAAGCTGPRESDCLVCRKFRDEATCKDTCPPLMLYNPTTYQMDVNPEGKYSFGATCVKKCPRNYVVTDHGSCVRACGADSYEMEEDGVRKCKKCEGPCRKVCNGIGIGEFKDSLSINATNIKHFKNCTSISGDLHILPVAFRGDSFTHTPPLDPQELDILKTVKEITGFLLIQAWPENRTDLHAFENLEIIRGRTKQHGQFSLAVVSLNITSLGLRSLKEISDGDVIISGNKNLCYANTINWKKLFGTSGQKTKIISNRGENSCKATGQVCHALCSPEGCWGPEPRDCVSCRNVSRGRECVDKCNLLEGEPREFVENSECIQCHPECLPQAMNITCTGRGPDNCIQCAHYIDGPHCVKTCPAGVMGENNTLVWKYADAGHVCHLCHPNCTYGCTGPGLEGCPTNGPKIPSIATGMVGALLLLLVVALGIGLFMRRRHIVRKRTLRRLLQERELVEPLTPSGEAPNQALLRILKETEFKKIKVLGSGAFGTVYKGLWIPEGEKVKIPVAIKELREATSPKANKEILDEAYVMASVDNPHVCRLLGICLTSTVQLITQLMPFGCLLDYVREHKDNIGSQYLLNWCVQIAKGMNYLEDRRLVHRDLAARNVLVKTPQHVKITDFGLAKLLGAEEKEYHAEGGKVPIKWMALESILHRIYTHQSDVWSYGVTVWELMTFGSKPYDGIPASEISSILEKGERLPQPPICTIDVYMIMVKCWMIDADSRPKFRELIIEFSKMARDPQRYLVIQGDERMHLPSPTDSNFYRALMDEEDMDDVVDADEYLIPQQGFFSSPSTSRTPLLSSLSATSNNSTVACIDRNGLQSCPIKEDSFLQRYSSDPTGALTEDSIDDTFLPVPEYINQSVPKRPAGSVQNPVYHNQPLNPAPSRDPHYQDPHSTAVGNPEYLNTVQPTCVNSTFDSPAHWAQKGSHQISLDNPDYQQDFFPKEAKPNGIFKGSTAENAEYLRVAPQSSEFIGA
T2 sequence (P06213 980-1382 limits assumed): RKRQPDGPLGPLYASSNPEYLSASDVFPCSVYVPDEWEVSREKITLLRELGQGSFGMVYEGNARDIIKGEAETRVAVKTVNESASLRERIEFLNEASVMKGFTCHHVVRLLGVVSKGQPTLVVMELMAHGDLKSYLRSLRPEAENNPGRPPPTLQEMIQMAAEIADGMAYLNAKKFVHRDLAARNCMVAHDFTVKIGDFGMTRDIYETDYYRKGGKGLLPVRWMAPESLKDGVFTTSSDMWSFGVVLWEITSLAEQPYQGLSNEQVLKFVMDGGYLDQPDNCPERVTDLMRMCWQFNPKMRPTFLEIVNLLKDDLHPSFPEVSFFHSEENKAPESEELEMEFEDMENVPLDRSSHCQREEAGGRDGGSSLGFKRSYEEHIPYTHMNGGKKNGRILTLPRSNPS
T3 sequence (P12931 whole entry): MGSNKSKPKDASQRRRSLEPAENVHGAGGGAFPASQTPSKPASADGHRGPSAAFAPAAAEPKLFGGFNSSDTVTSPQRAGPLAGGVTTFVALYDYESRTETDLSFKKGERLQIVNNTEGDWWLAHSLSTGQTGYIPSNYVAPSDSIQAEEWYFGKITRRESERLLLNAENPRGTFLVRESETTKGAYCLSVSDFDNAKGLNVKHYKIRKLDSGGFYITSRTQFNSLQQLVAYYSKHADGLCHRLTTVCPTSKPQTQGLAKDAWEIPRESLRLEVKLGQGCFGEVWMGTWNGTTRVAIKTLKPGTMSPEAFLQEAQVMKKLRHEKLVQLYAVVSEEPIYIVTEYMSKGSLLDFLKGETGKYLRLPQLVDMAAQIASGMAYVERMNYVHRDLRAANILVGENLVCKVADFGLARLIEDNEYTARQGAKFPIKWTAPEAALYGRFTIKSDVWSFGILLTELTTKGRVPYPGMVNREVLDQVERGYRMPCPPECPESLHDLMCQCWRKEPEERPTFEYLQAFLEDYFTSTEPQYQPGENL

Usually melting point stands for the temperature of the solid-liquid transition. For the molecule `Cc1cccc(Nc2ncnc3ccc(N(C)C(=O)NCCCl)cc23)c1`, the melting point is 150 to 151 °C (dec.).
What is called IC50 is the concentration needed to halve the response being measured. `O=NN(CCCl)C(=O)NCCCl` [BCNU, bis-chloroethyl-N-nitrosourea, reference compound]: the IC50 in the data set with A431 cells [1] is 40 µM.
For `COCCNN=Nc1ccc2ncnc(Nc3cccc(Br)c3)c2c1` [D R1=MeOCH2CH2—], the half-inhibitory concentration (IC50) on EGFR [2] (Table 1, means and SE's of two separate experiments, read-out: IC50 (μM), inhibition of EGFR tyrosine kinase activity) stood at 0.071 ± 0.029 µM.
Molecule `COCCNN=Nc1ccc2ncnc(Nc3cccc(C)c3)c2c1` [E R1=MeOCH2CH2—] showed an IC50 at EGFR [2] of 0.196 ± 0.031 µM.
With `Nc1ccc2ncnc(Nc3cccc(Cl)c3)c2c1` [FD105], the IC50 in the data set on A431 cells [3] (setting [12]) is greater than 100 µM. The “effect on insulin receptor TK” value in data set [4] is on record as “nor did it exert any effect on insulin receptor TK”. Moreover, at EGFR [5], the “EGF-dependent EGFR autophosphorylation immediately after drug exposure” value was “completely suppressed”. In addition, the “effect on c-src TK activity” value at human c-src is reported as “did not block c-src TK activity”. Further, in the data set with NIH3T3HER14 cells (EGF or TGFα-induced proliferation), the “concentration giving 100% growth inhibition” value is 1 µM. Also, the “concentration giving 100% inhibition” value in the data set on NIH3T3HER14 cells (PDGF-stimulated growth) is reported as “approximately 30 μM”. The “DNA damage (comet tail moment)” value in the data set with A431 cells [6] is recorded as “non-DNA damaging agent”.
With `CNc1ccc2ncnc(Nc3cccc(C)c3)c2c1` [FD110], the IC50 at EGFR [2] was roughly 0.05 µM.
Regarding `Cc1cccc(Nc2ncnc3ccc(N(C)C(=O)N(CCCl)N=O)cc23)c1` [FD137, N-(2-Chloroethyl)-N′-methyl-N′-(4-m-tolylaminoquinazolin-6-yl)-N-nitrosourea], the melting point was 150 to 151 °C (dec.). In the data set with A431 cells [3], the “fold more potent than BCNU” value is given as 50 fold. Besides, the IC50 in the data set with A431 cells [1] is 0.8 µM. Further, the “level of DNA lesions compared with BCNU” value with A431 cells [6] (A431) is “lower levels of DNA lesions than BCNU”. In the data set on A431 cells [6], the “DNA damage (comet tail moment)” value is given as “dose-dependent increase in DNA single strand breaks”.
Take `CC(=O)OCOC(c1ccc2ccccc2c1)P(=O)(OCOC(C)=O)OCOC(C)=O` (centres unmarked) [HNPMA-(AM)3]: the IC50 in data set [7] was 100 µM.
Take `CNN=Nc1ccc2ncnc(Nc3cccc(C)c3)c2c1` [SMA41]: the IC50 in the data set on A431 cells [3] (72 h continuous exposure, SRB, A431, read-out: IC50 growth inhibition) was roughly 30 µM; in the data set with A431 cells [3] (Homo sapiens, A-431, 2 h exposure then 72 h recovery in drug-free medium, SRB, A431, read-out: IC50 growth inhibition), 36 µM; in the data set on A431 cells [3] (setting [13]), 36 µM; with A431 cells [9] it was 4 µM. In addition, the half-life in data set [8] was roughly 30 min. The “concentration range with significant comet tail moment / DNA damage” value in the data set on A431 cells [6] (A431, 30 min and 2 h exposure) was 6 to 25 µM and 6.25 to 25 µM. Also, the “DNA damage (comet tail moment)” value with A431 cells [6] is on record as “capable of inducing DNA damage in a dose-dependent manner”. For the same molecule, the “concentration range with nuclear condensation” value in the data set with A431 cells [6] (A431, 2 h) lay within 25 to 100 µM.
Take `Cc1cccc(Nc2ncnc3ccc(N)cc23)c1` [SMA52, 6-amino-4-[(m-tolyl)amino]quinazoline]: the IC50 was 59 µM in the data set with A431 cells [3] (Homo sapiens, A-431, 72 h, read-out: IC50 growth inhibition); greater than 100 µM in the data set on A431 cells [3] (setting [12]); 8.44 µM on EGFR [10]; 3.7 µM in the data set on A431 cells [9]; 1.02 µM at EGFR [2]; 1 µM on EGFR [2] (setting [14]). In addition, the “DNA damage (comet tail moment)” value in the data set on A431 cells [6] was “does not possess DNA damaging properties”.
As to `Cn1nnc2c(C(N)=O)ncn2c1=O` [TEM, temozolomide, reference compound], the “antiproliferative activity under short and continuous exposure” value in the data set on A431 cells [3] (2 h + 72 h recovery and 72 h continuous, A431) was “inactive”. Besides, the IC50 with A431 cells [3] (setting [13]) was 366 µM; against EGFR [10], greater than 100 µM; on EGFR [2] (setting [14]) it was greater than 100 µM. For the same molecule, the “fold greater cytotoxic activity in EGFR transfectant NIH3T3HER14 than in parental NIH3T3” value in data set [11] is “no differential cytotoxicity”.
